What is called IC50 is the concentration that inhibits the measured activity by half.

Each structure is given as a SMILES string.

This assay deals with Epidermal growth factor receptor (Homo sapiens, UniProt P00533).
Epidermal growth factor receptor, sequence (P00533 whole entry): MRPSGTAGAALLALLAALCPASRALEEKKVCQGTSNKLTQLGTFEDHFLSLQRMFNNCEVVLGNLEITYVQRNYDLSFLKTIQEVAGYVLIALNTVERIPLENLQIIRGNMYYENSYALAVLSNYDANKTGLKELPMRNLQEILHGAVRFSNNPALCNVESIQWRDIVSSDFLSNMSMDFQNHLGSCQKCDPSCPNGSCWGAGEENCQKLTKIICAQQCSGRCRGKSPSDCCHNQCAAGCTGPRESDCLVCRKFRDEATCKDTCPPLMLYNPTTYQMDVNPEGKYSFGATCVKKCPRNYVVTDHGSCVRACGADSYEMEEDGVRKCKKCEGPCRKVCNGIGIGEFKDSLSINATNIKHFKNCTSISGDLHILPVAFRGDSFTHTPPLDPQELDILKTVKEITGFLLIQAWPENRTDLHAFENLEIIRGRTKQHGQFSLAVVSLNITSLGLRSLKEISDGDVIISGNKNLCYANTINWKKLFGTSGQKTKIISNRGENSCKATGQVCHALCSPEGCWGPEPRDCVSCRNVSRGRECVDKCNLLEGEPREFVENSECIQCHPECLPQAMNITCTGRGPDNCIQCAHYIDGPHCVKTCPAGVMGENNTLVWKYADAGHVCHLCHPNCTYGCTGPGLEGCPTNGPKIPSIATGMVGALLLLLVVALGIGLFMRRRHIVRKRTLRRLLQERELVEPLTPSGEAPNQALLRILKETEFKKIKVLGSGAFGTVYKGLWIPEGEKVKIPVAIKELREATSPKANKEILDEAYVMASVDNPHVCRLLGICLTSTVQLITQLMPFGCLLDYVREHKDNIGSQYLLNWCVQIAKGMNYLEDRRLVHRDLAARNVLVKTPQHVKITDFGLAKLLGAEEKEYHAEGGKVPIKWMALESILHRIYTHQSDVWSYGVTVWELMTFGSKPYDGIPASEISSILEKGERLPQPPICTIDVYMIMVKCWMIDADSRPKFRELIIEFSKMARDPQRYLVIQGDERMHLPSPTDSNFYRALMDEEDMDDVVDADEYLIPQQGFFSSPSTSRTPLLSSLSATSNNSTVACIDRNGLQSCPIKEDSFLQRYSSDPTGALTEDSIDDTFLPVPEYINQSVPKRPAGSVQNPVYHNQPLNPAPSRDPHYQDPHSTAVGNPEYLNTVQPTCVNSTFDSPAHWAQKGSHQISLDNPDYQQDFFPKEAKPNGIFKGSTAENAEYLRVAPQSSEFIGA
In the case of `COc1cc2ncnc(Nc3cccc(C#CCCO)c3)c2cc1OC`, the midpoint of inhibition, the IC50, lay at 402 nM. This counts as sub-micromolar. On to `COc1cc2ncnc(Nc3cccc(C#CCCCO)c3)c2cc1OC`, for which it took 1360 nM to reach half-maximal inhibition (IC50).

For the molecule `CC(C)(O)C#Cc1ccc2ncnc(Nc3ccc(F)c(Cl)c3)c2c1`, it took 152 nM to reach half-maximal inhibition (IC50).

Turning to `C#Cc1ccc2ncnc(Nc3ccc(F)c(Cl)c3)c2c1`, the IC50 came out at 127 nM. Next, `Fc1ccc(Nc2ncnc3ccc(C#CCN4CCOCC4)cc23)cc1Cl`: 50.3 nM.

Molecule `COc1cc2ncnc(Nc3cccc(C#Cc4ccccc4)c3)c2cc1OC` gave an IC50 of 921 nM. In the case of `COc1cc2ncnc(Nc3cccc(C#CCO)c3)c2cc1OC`, inhibition was half-maximal at 1640 nM (IC50). The figure for `OCCC#Cc1ccc2ncnc(Nc3ccc(F)c(Cl)c3)c2c1` is 186 nM; for `Fc1ccc(Nc2ncnc3ccc(C#CCN4CCCCC4)cc23)cc1Cl` it is 88.7 nM. As for `OCCCC#Cc1ccc2ncnc(Nc3ccc(F)c(Cl)c3)c2c1`, the IC50 came to 114 nM. This IC50 and that of the molecule before are within 1.5-fold of each other. Turning to `COc1cc2ncnc(Nc3cccc(C#CC(C)(C)O)c3)c2cc1OC`, 206 nM corresponded to half-maximal inhibition (IC50). The figure for `OCC#Cc1ccc2ncnc(Nc3ccc(F)c(Cl)c3)c2c1` is 14.1 nM; for `Fc1ccc(Nc2ncnc3ccc(C#Cc4ccccc4)cc23)cc1Cl` it is 331 nM.

In the case of `C#Cc1cccc(Nc2ncnc3cc(OC)c(OC)cc23)c1`, 28.8 nM corresponded to half-maximal inhibition (IC50).

Source of the values: ChEMBL document CHEMBL1140520, “Synthesis and biological evaluation of substituted 6-alkynyl-4-anilinoquinazoline derivatives as potent EGFR inhibitors” (Bioorg Med Chem Lett, 2007).
